Source: patent publication US20240165129A1, “METHODS OF TREATING PAIN AND DEPRESSION” (priority 2022, published 2024)
“Also recorded” adds a separate entry of the source.

Tests used:
[1] = system: ASIC currents (ASIC1a-like) in cortical neurons; assay: Patch-clamp recording of ASIC (ASIC1a-like) currents in primary cultured mouse cortical neurons; type: cell-based
mice brain after MCAO = details: mouse, in vivo
[2] = system: corticosterone-induced depression-like behaviors in mice; assay: Mouse model of depression induced by repeated corticosterone injections; type: in vivo; details: 12 mg/kg i.p. daily, corticosterone 40 mg/kg i.p. for 21 days
Description: Based on the fact that Triol inhibits ASIC1a, Triol can have anti-depression activity. […] A mouse model of depression induced by repeated corticosterone injections is used. Depression-like behaviors are induced by repeated administration of corticosterone (40 mg/kg, i.p.), once a day for 21 days in mice. Mice arerandomly assigned to 4 experimental groups (n=10/group). Control, corticosterone, corticosterone +Vehicle (20% HP-β-CD) and corticosterone+ Triol (12 mg/kg, i.p.). Triol is administered daily. The sucrose consumption test, open-field test (OFT), tail suspension test (TST), and forced swimming test (FST) are used to evaluate the therapeutic effect of Triol.

[3] = system: mice (depression-like behavior); assay: Forced swim test; type: in vivo, mouse
[4] = system: C57BL/6J mice (inflammatory pain); assay: Carrageenan-evoked inflammatory pain, von Frey paw withdrawal; type: in vivo, mouse; details: 12 mg/kg IV, 2 h after 2% carrageenan intraplantar
Description: Triol inhibits the above ASICs, so Triol has an analgesic effect. […] Experiments are performed on 12-week-old (20-25 g) C57BL/6J mice following the guidelines of the International Association for the Study of Pain. Inflammatory pain is evoked by intraplantar injection in the left hindpaw of 2% carrageenan (20 μl). After 2 h, Triol (12 mg/kg) or vehicle (20% HP-β-CD) is injected IV. The mechanical withdrawal threshold on the plantar surface of the hindpaw is measured with a set of von Frey hairs in the range of 0.4-26 gm (0.4, 1.2, 2, 4, 6, 8, 10, 15, 26 gm).

homomeric ASIC1β = target: T1, homomeric ASIC1β (Rattus norvegicus, UniProt P55926); assay: Patch-clamp recording of ASIC1β currents in CHO cells with transient expression; details: 10 μM, pH drop 7.4 to 6.0, n=4-5
T1 sequence (P55926 1-559 isoform P55926-3): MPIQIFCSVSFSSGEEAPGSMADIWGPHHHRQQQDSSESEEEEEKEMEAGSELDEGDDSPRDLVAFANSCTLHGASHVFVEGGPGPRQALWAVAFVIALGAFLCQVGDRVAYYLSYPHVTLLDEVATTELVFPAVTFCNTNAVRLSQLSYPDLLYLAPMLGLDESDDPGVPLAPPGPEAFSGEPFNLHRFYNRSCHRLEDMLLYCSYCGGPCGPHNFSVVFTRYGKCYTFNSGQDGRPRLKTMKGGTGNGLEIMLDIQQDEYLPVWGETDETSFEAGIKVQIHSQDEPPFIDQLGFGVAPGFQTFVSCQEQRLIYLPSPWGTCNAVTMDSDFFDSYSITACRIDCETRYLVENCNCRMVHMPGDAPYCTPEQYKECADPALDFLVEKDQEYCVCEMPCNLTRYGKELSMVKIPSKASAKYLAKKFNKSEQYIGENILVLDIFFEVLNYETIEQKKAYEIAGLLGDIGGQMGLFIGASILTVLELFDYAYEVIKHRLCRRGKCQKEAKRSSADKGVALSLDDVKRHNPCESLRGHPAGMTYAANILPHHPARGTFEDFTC
Description: Chinese hamster ovary (CHO) cells were cultured in F12-K medium (Invitrogen) plus 10% fetal bovine serum, 50 units/nal penicillin, and 50 μg/m1 streptomycin. At ˜50% confluence, CHO cells were co-transfected with cDNAs for rat ASIC1β, ASIC2a, or ASIC3, and that for GFP. GFP-positive cells were used for electrophysiological recordings 24-72 h after transient transfection.
ASIC currents were recorded using patch-clamp techniques. Pipette solution contained (mM): 140 CsF, 1 CaCl2, 2 MgCl2, 11 EGTA, 2 tetraethylammonium chloride, 10 HEPES and 4 MgATP, pH 7.3 adjusted with CsOH, 290-300 mOsm. Extracellular Fluid (ECF) contained (mM): 140 NaCl, 5.4 KCl, 2 CaCl2, 1 MgCl2, 10 glucose, and 10 HEPES (320-330 mOsm). A multi-barrel perfusion system (SF-77 Warner Instruments, Hamden, CT) was used to obtain a rapid exchange of ECFs. Currents were recorded with Axopatch 200B amplifier, filtered at 2 kHz, and digitized at 5 kHz using Digidata 1332A. ASIC currents were induced by rapid perfusion of the cells with acidic ECF for 4 seconds. Unless otherwise stated, cells were clamped at a holding potential of −60 mV. […] Data were excluded for statistical analysis when access resistance was >10 MΩ or leak current was >100 pA.
Therefore, the study used pH 6.0 and 4.5 to activate ASIC1β and ASIC2a currents, respectively. […]

[5] = target: T2, heteromeric ASIC1a/2a channels (Mus musculus, UniProt Q6NXK8+Q925H0); assay: ASIC currents in cortical neurons in the presence of PcTx1 (heteromeric channels); details: Triol 10 μM
T2 sequence (Q6NXK8 1-526): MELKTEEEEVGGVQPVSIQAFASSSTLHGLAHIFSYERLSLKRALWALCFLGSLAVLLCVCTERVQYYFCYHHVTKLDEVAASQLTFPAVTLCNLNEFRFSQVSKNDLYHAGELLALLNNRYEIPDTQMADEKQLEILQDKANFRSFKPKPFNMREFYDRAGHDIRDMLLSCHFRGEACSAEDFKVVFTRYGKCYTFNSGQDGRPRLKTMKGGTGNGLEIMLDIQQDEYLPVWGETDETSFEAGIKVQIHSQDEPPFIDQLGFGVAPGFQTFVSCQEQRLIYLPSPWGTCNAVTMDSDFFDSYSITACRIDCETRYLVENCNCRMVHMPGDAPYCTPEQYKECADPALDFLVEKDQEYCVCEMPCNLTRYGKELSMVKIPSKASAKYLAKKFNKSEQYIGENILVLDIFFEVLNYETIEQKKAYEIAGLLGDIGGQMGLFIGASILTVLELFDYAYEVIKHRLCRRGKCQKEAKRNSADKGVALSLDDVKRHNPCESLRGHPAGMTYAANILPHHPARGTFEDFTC
T2 sequence (Q925H0 1-512): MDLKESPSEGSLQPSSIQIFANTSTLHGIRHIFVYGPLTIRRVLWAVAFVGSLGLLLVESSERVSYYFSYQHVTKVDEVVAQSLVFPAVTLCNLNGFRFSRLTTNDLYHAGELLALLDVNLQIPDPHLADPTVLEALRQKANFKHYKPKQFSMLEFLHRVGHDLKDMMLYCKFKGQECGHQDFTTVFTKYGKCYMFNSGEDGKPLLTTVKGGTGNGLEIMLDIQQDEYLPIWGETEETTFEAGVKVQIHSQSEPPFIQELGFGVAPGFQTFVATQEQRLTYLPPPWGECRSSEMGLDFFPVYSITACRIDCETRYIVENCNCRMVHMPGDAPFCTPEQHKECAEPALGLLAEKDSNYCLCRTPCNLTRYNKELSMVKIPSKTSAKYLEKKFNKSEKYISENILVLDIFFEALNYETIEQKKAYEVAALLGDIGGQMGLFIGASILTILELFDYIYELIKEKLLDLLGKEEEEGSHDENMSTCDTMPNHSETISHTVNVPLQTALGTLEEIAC
Description: Mouse cortical neurons were cultured. Pregnant Swiss mice were purchased from Charles River. The use of mice for neuronal cultures was approved by the Institutional Animal Care and Use Committee of Morehouse School of Medicine. Briefly, the brains of fetuses (embryonic day 16) were removed quickly from anesthetized pregnant mice and placed in cold Ca2+/Mg2+-free PBS. Cerebral cortices were dissected and incubated with 0.05% trypsin-EDTA for 10 min at 37° C., followed by trituration. Cells were plated in poly-L-ornithine-coated culture dishes. Cells were initially cultured in minimal essential medium (MEM) with 10% fetal bovine serum (FBS), 10% horse serum, and 25 mM glucose and maintained at 37° C. in a humidified 5% CO2 atmosphere incubator for 24 h. After that, the culture medium was completely replaced by Neurobasal medium supplemented with B-27 (Invitrogen) and then changed twice a week. Neurons were used for the experiments between days 10 and 14.
ASIC currents were recorded using patch-clamp techniques. Pipette solution contained (mM): 140 CsF, 1 CaCl2, 2 MgCl2, 11 EGTA, 2 tetraethylammonium chloride, 10 HEPES and 4 MgATP, pH 7.3 adjusted with CsOH, 290-300 mOsm. […] Currents were recorded with Axopatch 200B amplifier, filtered at 2 kHz, and digitized at 5 kHz using Digidata 1332A. […]

[6] = system: Sprague-Dawley rats (CFA-induced pain); assay: CFA rat pain model, paw pressure (vocalization) and mechanical hypersensitivity tests
Description: Male Sprague-Dawley rats (150-175 g) are acclimatized for a week before testing. Rats are housed in a controlled room with a 12-hour light/dark cycle, with free access to food and water. Rats are housed 4 per cage except after the bilateral implantation experiment (2 per cage and individually following surgery). Pain is induced by a single unilateral intra-articular injection of 50 μl complete Freund's adjuvant (CFA, heat-killed Mycobacterium 2 mg/ml) in the right hindpaw under isoflurane (4%) anaesthesia. Sham rats are injected with 50 μl of vehicle in the same conditions. Behavioral experiments are performed 14-16 days after pain induction, when rats weighed between 260 to 320 g. […]
The effect of Triol (0.05 μg/0.5 μl/side) 15 min before the behavioral tests is evaluated in sham and Pain rats, 14 to 16 days following pain induction. The behavior of each rat is then assessed in the different tests (i.e., social interaction or elevated plus maze for anxiety, and paw pressure or paw immersion for pain, see below).
Mechanical hypersensitivity in sham and Pain animals is assessed with an analgesiometer (paw pressure test). Nociceptive thresholds are measured by applying increased pressure to the ipsilateral ankle of unrestrained rats until a vocalisation is obtained. […] Vocalization threshold is assessed at baseline and 15, 25 and 45 min following Triol, mambalgin-1 or saline administration.

[7] = 10 μM, before and after perfusion for 5 min

`CC(C)CCC[C@@H](C)[C@H]1CC[C@H]2[C@@H]3C[C@@H](O)[C@@]4(O)C[C@@H](O)CC[C@]4(C)[C@H]3CC[C@]12C` [Triol, cholestane-3β, 5α, 6β-triol] was tested, and the “effect on current-voltage relationship (IV)” value [1, 7] was “does not affect the current-voltage relationship”, the “shift in the pH dose-response of ASIC peak currents” value [1, 7] was “not a significant shift” and the “decrease of ASIC currents in cortical neurons” value ([1]; 10 μM, within 5 min of application/perfusion) was ~40%. For the same molecule, the “reversibility of ASIC current inhibition in cortical neurons” value ([1]; after 30 min washout (data not shown)) was “irreversible”, the “voltage dependence of inhibitory activity” value ([1]; holding potential −60 mV vs −30 mV) was “no significant change in the inhibitory activity” and the “infarct volume, Triol in the presence of PcTx-1” value (mice brain after MCAO) was “no additional reduction”. For the same molecule, the “protection against ischemic brain injury” value (mice brain after MCAO) was “didn't show additional protection; also recorded: A similar result; also recorded: significant protection”, the “antidepressant activity (sucrose consumption, OFT, TST, FST)” value [2] was “alleviating corticosterone-induced depression-like behaviors” and the “depression-like behavior in the forced swim test” value [3] was “decreased levels of depression-like behavior”. The “latency for the paw withdrawal reflex” value [4] was “increases the latency for the paw withdrawal reflex”, the “effect on ASIC1β currents” value (homomeric ASIC1β) was “no significant effect” and the “effect on remaining ASIC currents in the presence of PcTx1” value ([5]; PcTx1 40 nM, PcTx-1 sensitive neurons, n=9) was “further inhibited”. For the same molecule, the “effect on PcTx1 insensitive ASIC currents” value ([5]; PcTx-1 insensitive neurons (3 of 12 cells)) was “still inhibit these currents”, the “effects in the pain tests relative to commonly used pain relief drugs” value [6] was “independent of and additive to” and the “pain-related behavior in vocalization and mechanical hypersensitivity tests” value [6] was “decreased levels of pain-related behavior”.
